{"source": "patent US20050272040A1", "about": "“Method for increasing synaptic growth or plasticity” (priority 2002, published 2005)", "test_system": "individual hippocampal cells", "assay": "Single-cell Arc expression (aRNA amplification, real-time RT-PCR) after patch-clamp", "assay_type": "cell-based, rat", "conditions": "BDNF-treated cells, electrophysiologic responders (n=7) vs non-responders (n=9), p<0.05", "method": "FIG. 1A presents Arc expression in individual BDNF-treated cells following electrophysiological recordings and aRNA amplification. Arc transcription was measured by real-time RT-PCR and then normalized to internal GAPDH levels. The data are then expressed as a ratio of the average Arc expression in the seven control cells (expression ratio). FIG. 1B presents a correlation of Arc expression ratios to individual cell's synaptic BDNF responses. Average synaptic charge 3 to 5 minutes post-BDNF exposure expressed as a fold increase over baseline (−2 to 0 minute) was plotted against Arc expression ratios shown in FIG. 1A. Each circle represents one BDNF-treated cell. The cell number next to the circle corresponds with the cell number in FIG. 1A. Dashed line depicts a correlation coefficient indicating significance (r=0.66., p<0.005). The data are categorized into two groups of BDNF-treated cells: a cluster of non-responders (shaded) and a spread of responders (clear).\nThe molecular genetics of differential synaptic responses to BDNF was examined by performing single-cell transcriptional analysis after whole-cell patch-clamp. […] FIG. 1A represents Arc expression in cells exposed to BDNF relative to the average Arc expression in cells not exposed to BDNF (control) as assessed by real-time RT-PCR (expression ratio). […]", "data": [{"substance": "BDNF: neurotrophin, 50 ng/ml, Preprotech; induces synaptic plasticity in hippocampal neurons", "values": [{"measurement": "Increase in Arc expression, responders relative to non-responders", "value": 17, "unit": "fold"}]}]}
